The results in this text go back to ChEMBL document CHEMBL3508693 (2016).

One data set has as its target CYP2C19 (Homo sapiens, UniProt P33261). The data set is described as follows: Inhibition of CYP2C19 in human liver microsomes from 10 healthy donors at 200 uM aliskiren (SPP100). It counts as ADME, Microsome. Also noted: conc 200 uM. The settings on record: probe S-mephenytoin (4'-hydroxylation). On the technique in general: Microsomes from liver hold many membrane-bound enzymes, among them those of drug oxidation.

In data set [1] the target is T1, CYP1A2 (Homo sapiens, UniProt P05177).
T1 sequence (P05177 whole entry): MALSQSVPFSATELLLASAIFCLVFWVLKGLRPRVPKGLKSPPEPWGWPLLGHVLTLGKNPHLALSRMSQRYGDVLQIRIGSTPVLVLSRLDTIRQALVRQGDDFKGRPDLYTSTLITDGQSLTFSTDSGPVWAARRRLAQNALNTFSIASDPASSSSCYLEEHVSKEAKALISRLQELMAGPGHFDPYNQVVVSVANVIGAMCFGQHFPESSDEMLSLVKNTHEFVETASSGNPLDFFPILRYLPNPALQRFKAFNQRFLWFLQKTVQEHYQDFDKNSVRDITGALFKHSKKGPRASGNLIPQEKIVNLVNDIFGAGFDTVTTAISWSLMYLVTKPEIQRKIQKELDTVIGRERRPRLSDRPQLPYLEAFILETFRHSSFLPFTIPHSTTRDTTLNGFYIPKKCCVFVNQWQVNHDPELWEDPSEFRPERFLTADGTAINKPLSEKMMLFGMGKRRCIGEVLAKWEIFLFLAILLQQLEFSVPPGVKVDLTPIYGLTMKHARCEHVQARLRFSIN
Nature of the data set: Inhibitory activity of 200 uM SPP100 on 548 Pmoles of cDNA-derived CYP1A2 enzyme in microsome prepared from human lymphoblastoid cell line. Details: conc 200 uM, interact cpd conc 50 uM. It counts as ADME, microsomes. The note with it: probe phenacetin.

Data set [2] in a line: % SPP100 recovered in bile following single intravenous administration of 10 mg.Kg-1 [14C] aliskiren hemifumarate in male rat. The settings on record: in vivo. It counts as ADME, organism-based, HAN:WIST(SPF).
In data set [3] the target is T1, CYP1A2. Nature of the data set: Inhibition of CYP1A2 in human liver microsomes from 10 healthy donors at 200 uM aliskiren (SPP100). Details: conc 200 uM. Format: ADME, Microsome. The note with it: probe phenacetin (O-deethylation).
Data set [4] can be described thus: Excretion (0-168h) of aliskiren in urine following oral administration of [14C] aliskiren hemifumarate at 3 mg.Kg-1 level in marmoset. Format: ADME, organism-based, Callithrix jacchus. The note with it: in vivo.
Another data set concerns the target T2, Cytochrome P450 4F2 (Homo sapiens, UniProt P78329).
T2 sequence (P78329 whole entry): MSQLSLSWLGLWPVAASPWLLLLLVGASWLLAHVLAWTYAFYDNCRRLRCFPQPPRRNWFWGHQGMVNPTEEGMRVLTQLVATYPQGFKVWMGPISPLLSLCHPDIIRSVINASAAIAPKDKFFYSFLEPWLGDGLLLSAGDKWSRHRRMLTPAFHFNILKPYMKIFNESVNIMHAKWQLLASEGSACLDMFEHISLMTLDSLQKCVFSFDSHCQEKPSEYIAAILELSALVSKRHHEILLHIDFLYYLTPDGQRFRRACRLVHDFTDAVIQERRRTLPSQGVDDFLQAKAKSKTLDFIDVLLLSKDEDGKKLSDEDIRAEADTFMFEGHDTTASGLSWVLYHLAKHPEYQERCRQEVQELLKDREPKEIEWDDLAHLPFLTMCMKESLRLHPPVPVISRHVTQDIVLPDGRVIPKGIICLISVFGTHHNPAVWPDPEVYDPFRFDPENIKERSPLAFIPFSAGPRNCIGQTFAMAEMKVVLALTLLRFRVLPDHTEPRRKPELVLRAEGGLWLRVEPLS
Nature of the data set: Metabolic clearance (ul.min.nmol-1 CYP) of aliskiren hemifumarate for CYP4F2 was determined in human liver microsome incubated with [14C]SPP100 hemifumarate. Format: ADME. The note with it: microsomes.

A short description of data set [5]: Cmax of [14C] aliskiren hemifumarate following single oral dose of [14C] aliskiren hemifumarate at 500 mg.Kg-1 level in mouse. Format: ADME, organism-based, TgRasH2, Plasma. The note with it: in vivo.
A short description of data set [6]: Excretion of radioactivity (72-96h) in faeces following single intravenous dose of 10 mg.Kg-1 [14C] aliskiren hemifumarate in rat. It counts as ADME, organism-based, Albino HAN:WIST, Feces. The settings on record: in vivo.
The nature of data set [7]: Total excretion of radioactivity following oral administration of [14C] aliskiren hemifumarate at 3 mg.Kg-1 level in marmoset. Format: ADME, organism-based, Callithrix jacchus, Urine/Feces. The settings on record: in vivo.
Data set [8] is described as follows: Tmax of [14C] aliskiren hemifumarate following single oral dose of [14C] aliskiren hemifumarate at 500 mg.Kg-1 level in mouse. Format: ADME, organism-based, TgRasH2, Plasma. The note with it: in vivo.
Data set [9] is described as follows: Concentration of radioactivity in the colon wall following repeated oral administration of [14C] aliskiren hemifumarate at 100 mg.Kg-1 level studied at 2h after 3rd dose in rat. It counts as ADME, organism-based, Albino HAN:WIST. The note with it: in vivo.
The nature of data set [10]: Concentration of radioactivity in the brown fat following repeated oral administration of [14C] aliskiren hemifumarate at 100 mg.Kg-1 level studied at 2h after 10th dose in rat. The note with it: in vivo. Format: ADME, organism-based, Albino HAN:WIST, Brown adipose tissue.
A short description of data set [11]: Mean excretion of radioactivity (0-96h) in urine and faeces following single oral dose of 100 mg.Kg-1 [14C] aliskiren hemifumarate in rat. The settings on record: in vivo. Format: ADME, organism-based, Albino HAN:WIST, Urine/Feces.
The nature of data set [12]: Biliary elimination of aliskiren following single intravenous dose of [14C] aliskiren hemifumarate at 10 mg.Kg-1 level in mouse. Format: ADME, organism-based, TgRasH2, Bile. The settings on record: in vivo.
Data set [13] is described as follows: Excretion (0-168h) of 14C-radioactivity in faeces following single oral dose of 300 mg [14C]SPP100 studied in healthy men. Format: ADME, organism-based, Feces. The note with it: human, in vivo, at 300 mg.
A short description of data set [14]: Excretion (0-24h) of radioactivity in faeces following intravenous administration of [14C] aliskiren hemifumarate at 1 mg.Kg-1 level in marmoset. It counts as ADME, organism-based, Callithrix jacchus, Feces. The settings on record: in vivo.
A short description of data set [15]: % of radioactivity (48h) recovered in faeces of receiver rat following duodenal infusion of radioactivity through bile from donor rat treated with single intravenous administration of 10 mg.Kg-1 [14C] aliskiren hemifumarate. Format: ADME, organism-based, HAN:WIST(SPF), Feces. The settings on record: in vivo.
A short description of data set [16]: Excretion (0-96h) of 14C-radioactivity in faeces following single oral dose of 300 mg [14C]SPP100 studied in healthy men. The settings on record: human, in vivo, at 300 mg. Format: ADME, organism-based, Feces.
Data set [17] in a line: Tmax of aliskiren hemifumarate following 4 week oral dietary dosing of aliskiren hemifumarate at 1000 mg.Kg-1 level in male mouse. It counts as ADME, organism-based. The note with it: CB6F1-TGrasH2, mouse, in vivo.
A short description of data set [18]: AUC of unlabeled aliskiren hemifumarate following single oral dose of aliskiren hemifumarate at 500 mg.Kg-1 level in mouse. Format: ADME, organism-based. The note with it: TgRasH2, mouse, plasma.
The nature of data set [19]: Tmax of aliskiren hemifumarate following 2 week oral dosing of aliskiren hemifumarate at 10 mg.Kg-1 level studied on day 1 in female Callithrix jacchus. Format: ADME, organism-based. The settings on record: marmoset, plasma.
The nature of data set [20]: Tmax of unlabeled aliskiren hemifumarate following single oral dose of aliskiren hemifumarate at 500 mg.Kg-1 level in mouse. Format: ADME, organism-based. The settings on record: TgRasH2, mouse, plasma.
The nature of data set [21]: t1/2 of aliskiren hemifumarate following 2 week oral dosing of aliskiren hemifumarate at 100 mg.Kg-1 level studied on day 14 in male Callithrix jacchus. It counts as ADME, organism-based. The note with it: marmoset, plasma.
A short description of data set [22]: Cmax/dose of aliskiren hemifumarate following 4 week oral dietary dosing of aliskiren hemifumarate at 1500 mg.Kg-1 level in female mouse. It counts as ADME, organism-based, CB6F1-TGrasH2. The settings on record: in vivo, 672 h.
A short description of data set [23]: AUCspec of aliskiren hemifumarate following 2 week oral dosing of aliskiren hemifumarate at 50 mg.Kg-1 level studied on day 14 in female Callithrix jacchus. It counts as ADME, organism-based, Plasma. The note with it: marmoset, in vivo, 336 h.
Data set [24] can be described thus: Tmax of aliskiren hemifumarate following 2 week oral dosing of aliskiren hemifumarate at 100 mg.Kg-1 level studied on day 14 in female Callithrix jacchus. The settings on record: marmoset, plasma. It counts as ADME, organism-based.
A short description of data set [25]: Tmax of aliskiren hemifumarate following 2 week oral dosing of aliskiren hemifumarate at 100 mg.Kg-1 level studied on day 1 in male Callithrix jacchus. The note with it: marmoset, plasma. It counts as ADME, organism-based.

Sequence of CYP2C19 (P33261 whole entry): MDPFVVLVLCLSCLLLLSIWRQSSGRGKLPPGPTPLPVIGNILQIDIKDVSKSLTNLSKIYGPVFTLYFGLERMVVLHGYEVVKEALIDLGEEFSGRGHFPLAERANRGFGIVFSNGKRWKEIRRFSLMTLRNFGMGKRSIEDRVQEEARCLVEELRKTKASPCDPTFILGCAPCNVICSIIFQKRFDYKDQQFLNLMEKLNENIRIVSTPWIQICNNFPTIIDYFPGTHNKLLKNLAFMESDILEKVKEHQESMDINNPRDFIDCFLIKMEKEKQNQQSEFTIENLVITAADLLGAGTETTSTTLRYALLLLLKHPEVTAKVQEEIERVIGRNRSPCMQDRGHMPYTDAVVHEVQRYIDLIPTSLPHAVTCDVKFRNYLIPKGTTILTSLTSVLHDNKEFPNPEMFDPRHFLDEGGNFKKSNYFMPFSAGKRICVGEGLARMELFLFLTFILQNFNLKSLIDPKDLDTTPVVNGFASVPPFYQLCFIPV

In the case of `COCCCOc1cc(C[C@@H](C[C@H](N)[C@@H](O)C[C@H](C(=O)NCC(C)(C)C(N)=O)C(C)C)C(C)C)ccc1OC`, the results for the inhibition at 200 µM on CYP2C19, at CYP1A2 [1] and on CYP1A2 [3] were 42.5%, -6.4% and 15.2%, respectively. For the same compound, the Compound recovery in data set [2] amounted to 64.3%; in data set [4], 2.3%.
Regarding `COCCCOc1cc(C[C@@H](C[C@H](N)[C@@H](O)C[C@H](C(=O)NCC([14CH3])([14CH3])C(N)=O)C(C)C)C(C)C)ccc1OC.O=C(O)/C=C/C(=O)O`, at Cytochrome P450 4F2, the CL was found to be 7.9 µL·min/nmol. The Cmax (usually the highest concentration seen after dosing) in data set [5] worked out at 2.17 µM. For the same compound, the Radiolabel recovery in [6] is reported as 2.07%; in data set [7], 104%; in data set [9], “OUTCOME = Observed, VALUE = Highest radioactivity concentration was observed”; in data set [10] it was “OUTCOME = Detected”; in data set [11], 95.1%; in data set [12], “OUTCOME = Observed, VALUE = Elimination of aliskiren occurred mainly via the biliary or faecal route”. For the same compound, the Radiolabel recovery in data set [13] was 90.89%; in data set [14] it was 51.5%; in [15], 26.6%; in data set [16] it was 88.17%. Further, the Tmax (as a rule, the time from dosing to the highest level) in data set [8] came out at 1 h.
Turning to `COCCCOc1cc(C[C@@H](C[C@H](N)[C@@H](O)C[C@H](C(=O)NCC(C)(C)C(N)=O)C(C)C)C(C)C)ccc1OC.COCCCOc1cc(C[C@@H](C[C@H](N)[C@@H](O)C[C@H](C(=O)NCC(C)(C)C(N)=O)C(C)C)C(C)C)ccc1OC.O=C(O)/C=C/C(=O)O` [ALISKIREN FUMARATE], the Tmax was 3 h in data set [17]; 1 h in data set [19]; 1 h in [20]; 2 h in data set [24]; 1 h in [25]. Further, in data set [18], the AUC (commonly the area under the concentration-time curve, a measure of exposure) was found to be 7.04 µM·h. In addition, the half-life (commonly how long it takes for the measured level to halve) in data set [21] is 7.8 h. For the same compound, the Cmax normalised in data set [22] is recorded as 0.68 (ng/mL)/(mg/kg/day). Also, in data set [23], the AUC normalised was 2.18 ((ug.h.ml-1)/(mg/kg).
